Several values for one entry are separate records, joined by “and”; a condition that tells them apart may be missing. Identical values can stand only once.
Columns and labels:
Type in all cases: in vivo, mouse
[1] = Elimination and retention of gadolinium in normal mice; settings: for route of elimination (dynamic whole-body MRI): 100 μmol/kg i.v.; for Gadolinium content, Sum, % ID per Organ / Gadolinium content, Bone, % ID per Gram / Gadolinium content, Bone, % ID per Organ / Gadolinium content, Brain, % ID per Gram / Gadolinium content, Brain, % ID per Organ / Gadolinium content, Heart, % ID per Gram / Gadolinium content, Heart, % ID per Organ / Gadolinium content, Kidneys, % ID per Gram / Gadolinium content, Kidneys, % ID per Organ / Gadolinium content, Liver, % ID per Gram / Gadolinium content, Liver, % ID per Organ / Gadolinium content, Lung, % ID per Gram / Gadolinium content, Lung, % ID per Organ / Gadolinium content, Muscle, % ID per Gram / Gadolinium content, Muscle, % ID per Organ / Gadolinium content, Serum, % ID per Gram / Gadolinium content, Serum, % ID per Organ / Gadolinium content, Spleen, % ID per Gram / Gadolinium content, Spleen, % ID per Organ / Gadolinium content, Stomach, % ID per Gram / Gadolinium content, Stomach, % ID per Organ: 24 h after injection, 100 μmol/kg; for Gadolinium content, Bone, % ID per Gram / Gadolinium content, Bone, % ID per Organ / Gadolinium content, Brain, % ID per Gram / Gadolinium content, Brain, % ID per Organ / Gadolinium content, Heart, % ID per Gram / Gadolinium content, Heart, % ID per Organ / Gadolinium content, Kidneys, % ID per Gram / Gadolinium content, Kidneys, % ID per Organ / Gadolinium content, Liver, % ID per Gram / Gadolinium content, Liver, % ID per Organ / Gadolinium content, Lung, % ID per Gram / Gadolinium content, Lung, % ID per Organ / Gadolinium content, Muscle, % ID per Gram / Gadolinium content, Muscle, % ID per Organ / Gadolinium content, Serum, % ID per Gram / Gadolinium content, Serum, % ID per Organ / Gadolinium content, Spleen, % ID per Gram / Gadolinium content, Spleen, % ID per Organ / Gadolinium content, Stomach, % ID per Gram / Gadolinium content, Stomach, % ID per Organ: n = 4
Description: FIG. 55. […] The liver enhances slightly with first-blood pass but the signal rapidly returns to baseline after 20 min.
At 24 h post-injection (p.i.), >99% of the injected dose of gadolinium was eliminated from the body (Table B).

liver of CDAHFD mice = experiment: MR imaging of liver in non-alcoholic steatohepatitis (CDAHFD) model; settings: 20 min post injection
From the text: Non-Alcoholic Steatohepatitis Liver Fibrosis Model:
A total of 40 C57BL/6 mice were used and randomized to each study group. To induce NASH, 6-week old, male C57BL/6 mice (Charles River Labs, Wilmington, MA) were fed a choline deficient, high fat diet (CDAHFD) consisting of 60 kcal % fat and 0.1% methionine (A06071302; Research Diets, New Brunswick, NJ) by weight. No animals were excluded from the study.
Three groups of mice were studied:
Group A, mice were fed CDAHFD for 2 (n=6), 6 (n=6), 10 (n=6) weeks and imaged with probe Gd-9.
Group B, mice were fed CDAHFD for 10 weeks followed by normal chow for 1 (n=6) or 4 weeks (n=6) and imaged with probe Gd-9.
Group C, mice were fed normal chow for 2, 6, 10, 11 or 14 weeks (n=10) and imaged with probe Gd-9.
Animals were anesthetized with isoflurane (1-2%) and placed in a specially designed cradle with body temperature maintained at 37° C. The inhaled isoflurane level was adjusted to maintain a respiration rate of 60±5 breaths per minute. The tail vein was cannulated for intravenous (i.v.) delivery of the contrast agent while the animal was positioned in the scanner. Imaging was performed at 4.7 T using a small bore animal scanner with a custom-built volume coil. Mice were imaged with a dose of 100 μmol/kg from 30 mM stock solution of Gd or Mn complex.
Following the imaging session, animals were sacrificed (75 min p.i.) and liver tissue was subjected to histopathologic analysis.
For liver imaging analysis, a region of interest (ROI) was manually traced encompassing the liver parenchyma while avoiding major blood vessels. A second ROI was placed on the dorsal muscle visible in the same image slice to quantify the signal intensity in the muscle for comparison. Seven ROIs were placed in the field of view without any tissue (air) to measure the variation in background signal. More than 20 axial slices per mouse across the entire liver were analyzed in this fashion. […] Contrast to noise ratio (CNR) was calculated by measuring the difference in signal intensity (SI) between liver and muscle and normalizing to the standard deviation of the signal in the air, eq 21. ΔCNR was calculated by subtracting CNR measured prior to probe injection (CNRPre) from CNR measured after injection (CNRPost), eq 22.
Mice were fed with CDAHFD or standard chow for 2, 6, or 10 weeks; two additional groups of mice received CDAHFD for 10 weeks and then standard chow for 1 or 4 weeks (FIG. 70; 2 wk, 6 wk, and 10 wk bars correspond to CDAHFD; 1 wk and 4 wk bars correspond to standard chow; “MRI” indicates MRI with Gd-9).

IRI kidney cortex = experiment: MR imaging of kidney ischemia-reperfusion (IRI) model; settings: for Change in longitudinal relaxation time (ΔT1): 4 h post injection, n = 11
Description: Kidney Ischemia-Reperfusion (IRI) Model:
Male C57BL/6 mice (10-12 weeks old; Charles River Laboratories) were anesthetized with ketamine/xylazine (100/10 mg/kg; IP). Animals were then placed prone while maintaining rectal temperature strictly at 37° C. with a feedback-regulated heating pad. The skin incision was performed on the left lower flank while adhering to strict aseptic procedures. After accessing the retroperitoneal space, the left kidney, and the left renal artery-vein was identified. Ischemia was induced by applying a micro serrefine clip onto the renal artery and vein. Successful ischemia was visually confirmed by a gradual uniform darkening of the kidney. The clamp was removed 26 minutes later, and a rapid change verified successful reperfusion in kidney color from a dark maroon to a healthy dark pink. The skin was closed using surgical staples, and animals were returned to their home cages. Analgesia was provided by buprenorphine (0.1 mg/kg, SC, bid for three days starting 1 hour before IRI surgery).
Animals were imaged 14 days after IRI and were euthanized after imaging. The right and left kidneys were removed, cortex and medulla regions of each kidney were separated for further analysis.
For kidney imaging, a series of three-dimensional inversion-recovery FLASH images were acquired at baseline and 4 hours after Mn-16 administration with inversion recovery times of 7, 307, 557, 707, 857, 1507, 3007, 5007, and 7007 msec. (TR/TE/FA=5 see/72 msec, field of view (FOV) […], dimension 128×128, slice thickness 0.7 mm).
For kidney imaging analysis, longitudinal relaxation time (T1) was obtained by fitting inversion recovery data to a T1 relaxation equation (M0×(1−2 exp(−TI/T1))) and change in T1 (ΔT1) was calculated by subtracting T1 measured prior to probe injection (T1pre) from T1 measured after injection (T1post), eq 23.

SMILES | route of elimination (dynamic whole-body MRI) [1] | Gadolinium content, Sum, % ID per Organ [1] | Gadolinium content, Bone, % ID per Gram [1] | Gadolinium content, Bone, % ID per Organ [1] | Gadolinium content, Brain, % ID per Gram [1] | Gadolinium content, Brain, % ID per Organ [1] | Gadolinium content, Heart, % ID per Gram [1] | Gadolinium content, Heart, % ID per Organ [1] | Gadolinium content, Kidneys, % ID per Gram [1] | Gadolinium content, Kidneys, % ID per Organ [1] | Gadolinium content, Liver, % ID per Gram [1] | Gadolinium content, Liver, % ID per Organ [1] | Gadolinium content, Lung, % ID per Gram [1] | Gadolinium content, Lung, % ID per Organ [1] | Gadolinium content, Muscle, % ID per Gram [1] | Gadolinium content, Muscle, % ID per Organ [1] | Gadolinium content, Serum, % ID per Gram [1] | Gadolinium content, Serum, % ID per Organ [1] | Gadolinium content, Spleen, % ID per Gram [1] | Gadolinium content, Spleen, % ID per Organ [1] | further results
NN1CCN(C(=O)CCC(C(=O)[O-])N2CCN(CC(=O)[O-])CCN(CC(=O)[O-])CCN(C(CCC(=O)N3CCN(N)CC3)C(=O)[O-])CC2)CC1.[Gd+3] (stereo not drawn) [Gd-9, cis-1,4-Gd-(CHyd)2] | eliminated exclusively via the kidneys into the bladder | 0.625 % ID per Organ | 0.0144 ± 0.0125 % ID per Gram | 0.0455 ± 0.0174 % ID per Organ | 0.00336 ± 0.00277 % ID per Gram | 0.0013 ± 0.00125 % ID per Organ | 0.0788 ± 0.0151 % ID per Gram | 0.00708 ± 0.000802 % ID per Organ | 1.33 ± 0.152 % ID per Gram | 0.377 ± 0.0103 % ID per Organ | 0.0686 ± 0.0102 % ID per Gram | 0.0341 ± 0.0250 % ID per Organ | 0.166 ± 0.100 % ID per Gram | 0.0289 ± 0.00394 % ID per Organ | 0.0132 ± 0.00294 % ID per Gram | 0.105 ± 0.0225 % ID per Organ | 0.00138 ± 0.000861 % ID per Gram | 0.00376 ± 0.00113 % ID per Organ | 0.140 ± 0.0558 % ID per Gram | 0.00618 ± 0.000767 % ID per Organ | Gadolinium content, Stomach, % ID per Gram [1]: 0.114 ± 0.0288 % ID per Gram; Gadolinium content, Stomach, % ID per Organ [1]: 0.0157 ± 0.00274 % ID per Organ; ΔCNR of liver (row head ACNR) (liver of CDAHFD mice; 2 wk CDAHFD): 1.3±0.4 and 1.3 ± 0.3; ΔCNR of liver (row head ACNR) (liver of CDAHFD mice; 6 wk CDAHFD): 2.1 ± 0.4; ΔCNR of liver (row head ACNR) (liver of CDAHFD mice; 10 wk CDAHFD then 1 wk Withdrawal): 0.9±0.3; ΔCNR of liver (row head ACNR) (liver of CDAHFD mice; 10 wk CDAHFD then 4 wk Withdrawal): 0.3±0.2; ΔCNR of liver (row head ACNR) (liver of CDAHFD mice; 10 wk CDAHFD): 2.5±0.5; ΔCNR of liver (row head ACNR) (liver of CDAHFD mice; Control (standard chow)): 0.1±0.4
NOC(CCC(=O)NCCCN1CCN(CC(=O)[O-])Cc2cccc(n2)CN(CC(=O)[O-])CC1)C(=O)O.[Mn+2] (stereo not drawn) [Mn-16] | – | – | – | – | – | – | – | – | – | – | – | – | – | – | – | – | – | – | – | – | Mn concentration (IRI kidney cortex; IRI kidney cortex): 90 nmol/g; Change in longitudinal relaxation time (ΔT1) (IRI kidney cortex; IRI kidney cortex): -395 ms; Mn concentration (IRI kidney cortex; contralateral cortex): 60 nmol/g; Change in longitudinal relaxation time (ΔT1) (IRI kidney cortex; contralateral cortex): -230 ms
NN1CCN(C(=O)CCC(C(=O)[O-])N2CCN(CC(=O)[O-])CCN(C(CCC(=O)N3CCN(N)CC3)C(=O)[O-])CCN(CC(=O)[O-])CC2)CC1.[Gd+3] (stereo not drawn) [Gd-10, trans-1,7-Gd-(CHyd)2] | eliminated exclusively via the kidneys into the bladder | 0.584 % ID per Organ | 0.0180 ± 0.00486 % ID per Gram | 0.0469 ± 0.0126 % ID per Organ | 0.00206 ± 0.000288 % ID per Gram | 0.000776 ± 0.000169 % ID per Organ | 0.0219 ± 0.00212 % ID per Gram | 0.00203 ± 0.000132 % ID per Organ | 1.45 ± 0.262 % ID per Gram | 0.365 ± 0.0315 % ID per Organ | 0.105 ± 0.00715 % ID per Gram | 0.0572 ± 0.0426 % ID per Organ | 0.157 ± 0.00422 % ID per Gram | 0.0197 ± 0.00107 % ID per Organ | 0.00886 ± 0.000914 % ID per Gram | 0.0709 ± 0.0073 % ID per Organ | 0.00169 ± 0.000259 % ID per Gram | 0.00398 ± 0.000175 % ID per Organ | 0.165 ± 0.0817 % ID per Gram | 0.0086 ± 0.00085 % ID per Organ | Gadolinium content, Stomach, % ID per Gram [1]: 0.0414 ± 0.02775 % ID per Gram; Gadolinium content, Stomach, % ID per Organ [1]: 0.00869 ± 0.00207 % ID per Organ
